{"source": "EPA's ToxValDB 9.5 (doi:10.2903/j.efsa.2010.1771)", "key": {"Typhlodromus pyri": {"tested_on": "Typhlodromus pyri", "settings": "not reported; mortality"}, "Tagia sp.": {"tested_on": "Tagia sp.", "settings": "acute; mortality"}, "Apis mellifera": {"tested_on": "Apis mellifera", "settings": "acute; duration: 48 hours; oral; unspecified; mortality"}, "Canidae": {"tested_on": "Canidae", "settings": "oral, Dog Other, hematological"}, "Daphnia magna": {"tested_on": "Daphnia magna", "settings": "chronic/long-term; duration: 21 days; reproduction"}, "Anas platyrhynchos": {"tested_on": "Anas platyrhynchos", "settings": "short-term; oral; feed; mortality"}}, "data": [{"smiles": "CCSC(C)CC1CC(=O)C(C(CC)=NOC/C=C/Cl)=C(O)C1", "note": "(stereo not drawn) [Clethodim]", "values": [{"measurement": "LD50", "setting": "Colinus virginianus; acute, oral, mortality", "value": "> 1640", "unit": "mg/kg"}, {"measurement": "NOEL", "setting": "Colinus virginianus; reproduction developmental, reproduction", "value": 17, "unit": "mg/kg-day"}, {"measurement": "LEL", "setting": "Typhlodromus pyri", "value": 9.6, "unit": "g/ha"}, {"measurement": "LC50", "setting": "Tagia sp.", "value": 129, "unit": "mg/kg"}, {"measurement": "LC50", "setting": "Oncorhynchus mykiss; acute, duration: 96 hours, mortality", "value": 25, "unit": "µg/mL"}, {"measurement": "NOEC", "setting": "Oncorhynchus mykiss; chronic/long-term, duration: 21 days", "value": 3.9, "unit": "mg/L"}, {"measurement": "LD50", "setting": "Apis mellifera", "value": "> 43", "unit": "µg/piece"}, {"measurement": "NOAEL", "setting": "Canidae; chronic, duration: 1 years", "value": 21, "unit": "mg/kg-day"}, {"measurement": "NOAEL", "setting": "Canidae; subchronic, duration: 90 days", "value": 21, "unit": "mg/kg-day"}, {"measurement": "NOEC", "setting": "Daphnia magna", "value": 49, "unit": "mg/L"}, {"measurement": "LC50", "setting": "Anas platyrhynchos", "value": "> 851", "unit": "mg/kg-day"}, {"measurement": "LD50", "setting": "Rattus norvegicus; acute, oral, mortality", "value": 1130, "unit": "mg/kg"}, {"measurement": "NOAEL", "setting": "Rattus norvegicus; chronic, duration: 2 years, organ weight", "value": 16, "unit": "mg/kg-day"}]}]}
